[invAb] = inverted abasic unit; d = 2'-deoxy (DNA); m = 2'-O-methyl; r = 2'-OH (RNA); f = 2'-fluoro
Experiments:
[1] = system: mSCNN1A mRNA; assay: Screening of ENaCα siNAs in mouse NIH 3T3 cells (quantitative RT-PCR); assay type: cell-based; set-up: Percent Reduction of the mSCNN1A mRNA relative to a non-targeting control siNA / Mouse % KD (efficacy of ENaCα mRNA knockdown): concentration or dose not given beside the values; conditions: mouse NIH 3T3 cells, n = 3; for Mean (mSCNN1A expression normalized to the level of m36B4) / Percent Reduction of the mSCNN1A mRNA relative to a non-targeting control siNA / Avg 36B4 Expression: 24 hours post-transfection; for Avg ENaCα Expression (mSCNN1A): harvested 24 hours post-transfection; for Avg 36B4 Expression: housekeeping gene used for normalisation
How it was run: (§1)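 Rat H-4-II-E and mouse NIH 3T3 cells transfected with siNA–Lipofectamine 2000 complexes (25 nM siNA final; dose-response at constant lipid), screened at 24 h. qRT-PCR with ENaCα signal normalized to GAPDH or 36B4; % knockdown relative to non-targeting control siNA, triplicates; IC50 from sigmoidal variable-slope fit.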

[2] = system: rSCNN1A (r ENaCα) mRNA; assay: Screening of ENaCα siNAs in Rat H-4-II-E cells (quantitative RT-PCR); assay type: cell-based; set-up: Percent Reduction of the r ENaCα mRNA relative to a non-targeting control siNA (NTCs) / Rat % KD (efficacy of ENaCα mRNA knockdown): concentration or dose not given beside the values; conditions: Rat H-4-II-E cells, n = 3; for Mean (rSCNN1A expression normalized to the level of rGAPDH) / Percent Reduction of the r ENaCα mRNA relative to a non-targeting control siNA (NTCs) / Avg GAPDH Expression (rGAPDH): 24 hours post-transfection; for Avg ENaCα Expression (rSCNN1A): harvested 24 hours post-transfection; for Avg GAPDH Expression (rGAPDH): housekeeping gene used for normalisation
How it was run: as §1

Substance | Mean (mSCNN1A expression normalized to the level of m36B4) [1] | Percent Reduction of the mSCNN1A mRNA relative to a non-targeting control siNA [1] [%] | Avg ENaCα Expression (mSCNN1A) [1] | Avg 36B4 Expression [1] | Mean (rSCNN1A expression normalized to the level of rGAPDH) [2] | Percent Reduction of the r ENaCα mRNA relative to a non-targeting control siNA (NTCs) [2] [%] | Avg ENaCα Expression (rSCNN1A) [2] | Avg GAPDH Expression (rGAPDH) [2]
B AAccGCAuGAAGAcGGccu TTB / AGGccGucuucAuGcGGuuUU (chain 1 AACCGCAUGAAGACGGCCUTT; chain 2 AGGCCGUCUUCAUGCGGUUUU; siRNA; chain 1: sugars from the 5' end ddffdddfdddddfddfffdd, [invAb] at 5' end, 3' end, backbone not given here; chain 2: sugars from the 5' end rrrffmfffffmfmfmmffmm, backbone not given here) [Site 337] | 0.24 | 0.8 | 3.42 | 14.44 | 0.96 | 25.4 | 16.40 | 17.17
B uGuGGcuGuGccuAcAucu TTB / AGAuGuAGGcAcAGccAcAUU (sense UGUGGCUGUGCCUACAUCUTT; antisense AGAUGUAGGCACAGCCACAUU; siRNA; sense: DNA at AGT, 2'-fluoro at CU, [invAb] at 5' end, 3' end, backbone not given here; antisense: sugars from the 5' end rrrfmfmmmfmfmmffmfmmm, backbone not given here) [Site 1384] | 0.14 | −0.1 | 3.11 | 20.56 | 0.66 | 27.8 | 23.39 | 34.69
B ccGcAuGAAGAcGGccuuc TTB / GAAGGccGucuucAuGcGGUU (chain 1 CCGCAUGAAGACGGCCUUCTT; chain 2 GAAGGCCGUCUUCAUGCGGUU; siRNA; chain 1: DNA at AGT, 2'-fluoro at CU, [invAb] at 5' end, 3' end, backbone not given here; chain 2: sugars from the 5' end rrrmmffmfffffmfmfmmmm, backbone not given here) [Site 339] | 0.35 | −44.9 | 5.05 | 14.61 | 0.79 | 38.3 | 15.81 | 19.92
B cuccuGuccAAccuGGGcA TTB / UGCccAGGuuGGAcAGGAGUU (sense CUCCUGUCCAACCUGGGCATT; antisense UGCCCAGGUUGGACAGGAGUU; siRNA; sense: DNA at AGT, 2'-fluoro at CU, [invAb] at 5' end, 3' end, backbone not given here; antisense: sugars from the 5' end rrrffmmmffmmmfmmmmmmm, backbone not given here) [Site 1738] | 0.13 | 5.1 | 2.63 | 20.59 | 0.63 | 31.1 | 21.90 | 35.43
B cAcuccuGcuuccAGGAGA TTB / UCUccuGGAAGcAGGAGuGUU (sense CACUCCUGCUUCCAGGAGATT; antisense UCUCCUGGAAGCAGGAGUGUU; siRNA; sense: DNA at AGT, 2'-fluoro at CU, [invAb] at 5' end, 3' end, backbone not given here; antisense: sugars from the 5' end rrrfffmmmmmfmmmmmfmmm, backbone not given here) [Site 1351] | 0.22 | 9.6 | 2.56 | 11.91 | 0.72 | 43.7 | 18.06 | 24.87
B cAGAGcAGAAuGAcuucAu TTB / AUGAAGucAuucuGcucuGUU (sense CAGAGCAGAAUGACUUCAUTT; antisense AUGAAGUCAUUCUGCUCUGUU; siRNA; sense: DNA at AGT, 2'-fluoro at CU, [invAb] at 5' end, 3' end, backbone not given here; antisense: sugars from the 5' end rrrmmmffmffffmffffmmm, backbone not given here) [Site 1100] | 0.24 | −1.5 | 3.43 | 14.25 | 0.83 | 35.4 | 21.68 | 26.15
B GccAuccGccuGGuGuGcu TTB / AGCAcAccAGGcGGAuGGcUU (sense GCCAUCCGCCUGGUGUGCUTT; antisense AGCACACCAGGCGGAUGGCUU; siRNA; sense: DNA at AGT, 2'-fluoro at CU, [invAb] at 5' end, 3' end, backbone not given here; antisense: sugars from the 5' end rrrmfmffmmmfmmrfmmfmm, backbone not given here) [Site 310] | 0.20 | 16.6 | 3.19 | 16.02 | 0.92 | 28.3 | 18.39 | 20.12
B GuccAAccuGGGcAGccAG TTB / CUGGcuGcccAGGuuGGAcUU (sense GUCCAACCUGGGCAGCCAGTT; antisense CUGGCUGCCCAGGUUGGACUU; siRNA; sense: DNA at AGT, 2'-fluoro at CU, [invAb] at 5' end, 3' end, backbone not given here; antisense: sugars from the 5' end rmmmffmfffmmmffmmmfmm, backbone not given here) [Site 1743] | 0.13 | 6.7 | 2.87 | 22.47 | 0.52 | 43.9 | 22.13 | 42.82

Source: patent US20110288154A1, “RNA Interference Mediated Inhibition of Epithelial Sodium Channel (ENaC) Gene Expression Using Short Interfering Nucleic Acid (siNA)” (MERCK & CO., INC., priority 2008, published 2011)
